Patent publication US10526287B2, “LSD1 inhibitors and uses thereof” (Constellation Pharmaceuticals, Inc., priority 2015, dated 2020)
Where a name gives a salt, the structure may show the parent alone. Read-outs that look alike come from different tables or passages of the source.

Target: LSD1 (Homo sapiens, UniProt O60341)
Assay: Biochemical assay for LSD1 activity (LSD1 demethylase TR-FRET)
Conditions: biotinylated H3K4me1 peptide, 50 minutes at room temperature, TR-FRET, read-out: LSD1_Pep_TR-FRET_1.0 (IC50 T50)

Structure (SMILES) | IC50 (Table 6) [nM] | IC50 (Table 7) [nM] | other results
C/C(=C\c1ccccc1)[C@@H]1C[C@H]1N[C@H]1CC[C@H](NCc2ccc(C(=O)O)cc2)CC1 (single isomer, unassigned) [Compound 150, 4-((((trans)-4-(((trans)-2-((E)-1-phenylprop-1-en-2-yl)cyclopropyl)amino)cyclohexyl)amino)methyl)benzoic acid bis(trifluoroacetic acid) salt] | < 100 |  | 
C/C(=C\c1ccccc1)[C@@H]1C[C@H]1N[C@H]1CC[C@H](NCCC(N)=O)CC1 (single isomer, unassigned) [Compound 151, 3-(((trans)-4-(((trans)-2-((E)-1-phenylprop-1-en-2-yl)cyclopropyl)amino)cyclohexyl)amino)propanamide bis(trifluoroacetic acid) salt] | < 100 |  | 
C/C(=C\c1ccccc1)[C@@H]1C[C@H]1N[C@H]1CC[C@@H](NCCC(N)=O)CC1 (single isomer, unassigned) [Compound 152, 3-(((cis)-4-(((trans)-2-((E)-1-phenylprop-1-en-2-yl)cyclopropyl)amino)cyclohexyl)amino)propanamide bis(trifluoroacetic acid) salt] | < 100 |  | 
C/C(=C\c1ccccc1)[C@@H]1C[C@H]1N[C@H]1CC[C@H](NCCC#N)CC1 (single isomer, unassigned) [Compound 155, 3-(((trans)-4-(((trans)-2-((E)-1-phenylprop-1-en-2-yl)cyclopropyl)amino)cyclohexyl)amino)propanenitrile bis(trifluoroacetic acid) salt] | < 100 |  | 
C/C(=C\c1ccccc1)[C@@H]1C[C@H]1N[C@H]1CC[C@@H](NCCC#N)CC1 (single isomer, unassigned) [Compound 156, 3-(((cis)-4-(((trans)-2-((E)-1-phenylprop-1-en-2-yl)cyclopropyl)amino)cyclohexyl)amino)propanenitrile bis(trifluoroacetic acid) salt] | < 100 |  | 
CC/C(=C\c1ccccc1)[C@@H]1C[C@H]1N[C@H]1CC[C@H](NCC(C)(C)C#N)CC1 (single isomer, unassigned) [Compound 157, 2,2-dimethyl-3-(((trans)-4-(((trans)-2-((E)-1-phenylbut-1-en-2-yl)cyclopropyl)amino)cyclohexyl)amino)propanenitrile bis(trifluoroacetic acid salt)] | < 100 |  | 
CC/C(=C\c1ccccc1)[C@@H]1C[C@H]1N[C@H]1CC[C@@H](NCC(C)(C)C#N)CC1 (single isomer, unassigned) [Compound 158, 2.2-dimethyl-3-(((cis)-4-(((trans)-2-((E)-1-phenylbut-1-en-2-yl)cyclopropyl)amino)cyclohexyl)amino)propanenitrile bis(trifluoroacetic acid salt)] | < 100 |  | 
CC/C(=C\c1ccccc1)[C@@H]1C[C@H]1N[C@H]1CC[C@H](NCCO)CC1 (single isomer, unassigned) [Compound 159, 2-(((trans)-4-(((trans)-2-((E)-1-phenylbut-1-en-2-yl)cyclopropyl)amino)cyclohexyl)amino)ethan-1-ol bis(trifluoroacetic acid salt)] | < 100 |  | 
CC/C(=C\c1ccccc1)[C@@H]1C[C@H]1N[C@H]1CC[C@H](NCc2c(OC)cc(C)[nH]c2=O)CC1 (single isomer, unassigned) [Compound 160, 4-methoxy-6-methyl-3-((((trans)-4-(((trans)-2-((E)-1-phenylbut-1-en-2-yl)cyclopropyl)amino)cyclohexyl)amino)methyl)pyridin-2(1H)-one bis(trifluoroacetic acid salt)] | < 100 |  | 
O=C(O)c1ccc(CN2CCC(CNC3CC3/C=C/c3ccccc3)CC2)cc1 (stereo not shown) [Compound 101, (E)-4-((4-(((2-styrylcyclopropypamino)methyl)piperidin-1-yl)methyl)benzoic Acid Dihydrochloride] |  |  | IC50 (Table 5): 100 to 1000 nM

Second part, led by results:

IC50 (Table 6) [nM] | IC50 (Table 7) [nM] | Structure (SMILES) | other results
< 100 |  | CC/C(=C\c1ccccc1)[C@@H]1C[C@H]1N[C@H]1CC[C@H](NCC2(CO)COC2)CC1 (single isomer, unassigned) [Compound 161, (3-((((trans)-4-(((trans)-2-((E)-1-phenylbut-1-en-2-yl)cyclopropyl)amino)cyclohexyl)amino)methyl)oxetan-3-yl)methanolbis(trifluoroacetic acid salt)] | 
< 100 |  | CC/C(=C\c1ccccc1)[C@@H]1C[C@H]1N[C@H]1CC[C@H](NCCOCC(=O)O)CC1 (single isomer, unassigned) [Compound 162, 2-(2-(((trans)-4-(((trans)-2-((E)-1-phenylbut-1-en-2-yl)cyclopropyl)amino)cyclohexyl)amino)ethoxy)acetic acidbis(trifluoroacetic acid salt)] | 
 | < 100 | CC/C(=C\c1ccccc1)[C@@H]1C[C@H]1NC1CC2(C1)CN(Cc1ccc(C(=O)O)cn1)C2 (single isomer, unassigned) [Compound 249, 6-((6-(((1R,2S or 1S,2R)-2-(E)-1-phenylbut-1-en-2-yl)cyclopropyl)amino)-2-azaspiro[3.3]heptan-2-yl)methyl)nicotinic Acid Bis Trifluoroacetate] | 
 | < 100 | CC/C(=C\c1ccccc1)[C@@H]1C[C@H]1NC1CC2(C1)CN(Cc1ccc(C(=O)O)cc1)C2 (single isomer, unassigned) [Compound 250] | 
 | < 100 | CC/C(=C\c1ccccc1)[C@@H]1C[C@H]1NC1CC2(C1)CN(Cc1ccc(C(=O)O)nc1)C2 (single isomer, unassigned) [Compound 251] | 
 | < 100 | CC/C(=C\c1ccccc1)[C@@H]1C[C@H]1NC1CC2(C1)CN(Cc1ccc(-c3nnn[nH]3)cc1)C2 (single isomer, unassigned) [Compound 252] | 
 | < 100 | CC/C(=C\c1ccccc1)[C@@H]1C[C@H]1NC1CC2(C1)CN(Cc1ccc(C(=O)O)cc1C)C2 (single isomer, unassigned) [Compound 254] | 
 | < 100 | CC/C(=C\c1ccccc1)[C@@H]1C[C@H]1NC1CC2(C1)CN(Cc1ccc(C(=O)O)c(C)c1)C2 (single isomer, unassigned) [Compound 255] | 
 | < 100 | CC/C(=C\c1ccccc1)[C@@H]1C[C@H]1NC1CC2(C1)CN(Cc1cnc(C(=O)O)cn1)C2 (single isomer, unassigned) [Compound 256] | 
 | < 100 | CC/C(=C\c1ccccc1)[C@@H]1C[C@H]1N[C@H]1CC[C@H](NCc2ccc(C(=O)O)nc2)CC1 (single isomer, unassigned) [Compound 260, 5-((((trans)-4-(((1R,2S or 1S,2R)-2-((E)-1-phenylbut-1-en-2-yl)cyclopropyl)amino)cyclohexyl)amino)methyl)picolinic acid bis trifluoroacetate] | 
 | < 100 | CC/C(=C\c1ccccc1)[C@@H]1C[C@H]1NC1CC2(C1)CN(CCC(=O)O)C2 (single isomer, unassigned) [Compound 266, 3-(6-(((1R,2S or 1S,2R)-2-((E)-1-phenylbut-1-en-2-yl)cyclopropyl)amino)-2-azaspiro[3.3]heptan-2-yl)propanoic Acid (Single Stereoisomer)] | 
 | < 100 | CC/C(=C\c1ccccc1)[C@@H]1C[C@H]1NC1CC2(C1)CN(CC(N)=O)C2 (single isomer, unassigned) [Compound 268, 2-(6-(((1R,2S or 1S,2R)-2-(E)-1-phenylbut-1-en-2-yl)cyclopropyl)amino)-2-azaspiro[3.3]heptan-2-yl)acetamide Bis Trifluoroacetate (Single Stereoisomer)] | 
